Data reported in publication PMC8305571 (2021).

Key:
[1] = tested on: Scle (DNA, G4) TGGGGGGGTGGGTGGGT; assay: CD melting, 264 nm; conditions: 50 mM KCl; mBR buffer, pH 7.0; derived from two Tm (81.5, >100); indicative values
[2] = tested on: HTR (DNA, G4) GGGTTAGGGTTAGGGTTAGGG; assay: CD melting, 294 nm; conditions: 50 mM KCl; mBR buffer, pH 7.0; derived from two Tm (63.5, 64.0); indicative values
[3] = tested on: TBA (DNA, G4) GGTTGGTGTGGTTGG; assay: CD melting, 294 nm; conditions: 50 mM KCl; mBR buffer, pH 7.0; derived from two Tm (46.5, 48.5); indicative values
[4] = tested on: Hema (DNA, G4) GGGGTCGGGCGGGCCGGGTG; assay: CD melting, 264 nm; conditions: 50 mM KCl; mBR buffer, pH 7.0; derived from two Tm (72.0, 86.0); indicative values
[5] = tested on: STAT (DNA, G4) GGGCGGGCGGGCGGG; assay: CD melting, 264 nm; conditions: mBR buffer, pH 7.0, indicative values
[6] = tested on: ionK (DNA, G4) GGGTTAGGGTTAGGGTAGGG; assay: CD melting, 294 nm; conditions: 50 mM KCl; mBR buffer, pH 7.0; derived from two Tm (59.1, 58.0); indicative values
[7] = tested on: VEGF (DNA, G4) GGGGCGGGCCGGGGGCGGG; assay: CD melting, 264 nm; conditions: mBR buffer, pH 7.0, indicative values
[8] = tested on: TFO1 (DNA, triplex) AAAAAAAACCCCTTTTTTTTCCCCTTTTTTTT; assay: CD melting, 282 nm; conditions: no added salt; mBR buffer, pH 7.0; derived from two Tm (20.4, 17.7); indicative values
[9] = tested on: G3A (DNA, G4) GGGAGGGAGGGAGGGA; assay: CD titration, PAGE; conditions: 50 mM NaCl or KCl; mBR buffer, pH 7.0; up to 260 µM RhG (CD), 130 µM (PAGE)
[10] = tested on: G3C (DNA, G4) GGGCGGGCGGGCGGGC; assay: CD titration, PAGE; conditions: 50 mM NaCl or KCl; mBR buffer, pH 7.0; up to 260 µM RhG (CD), 130 µM (PAGE)
[11] = tested on: HTR (DNA, G4) GGGTTAGGGTTAGGGTTAGGG; assay: CD melting, 294 nm; conditions: 50 mM NaCl; 25 mM mBR buffer, pH 7.0; ligand concentration not given; indicative value
[12] = tested on: Scle (DNA, G4) TGGGGGGGTGGGTGGGT; assay: CD melting, 264 nm; conditions: 50 mM NaCl; 25 mM mBR buffer, pH 7.0; ligand concentration not given; indicative value
[13] = tested on: TBA (DNA, G4) GGTTGGTGTGGTTGG; assay: CD melting, 294 nm; conditions: 50 mM NaCl; 25 mM mBR buffer, pH 7.0; ligand concentration not given; indicative value
[14] = tested on: Hema (DNA, G4) GGGGTCGGGCGGGCCGGGTG; assay: CD melting, 264 nm; conditions: 50 mM NaCl; 25 mM mBR buffer, pH 7.0; ligand concentration not given; indicative value
[15] = tested on: ionK (DNA, G4) GGGTTAGGGTTAGGGTAGGG; assay: CD melting, 294 nm; conditions: 50 mM NaCl; 25 mM mBR buffer, pH 7.0; ligand concentration not given; indicative value
[16] = tested on: Scle (DNA, G4) TGGGGGGGTGGGTGGGT; assay: induced CD and UV-Vis titration; conditions: 50 mM KCl; mRB buffer, pH 7.0; 130 µM RhG, DNA up to 27 µM
[17] = tested on: HTR (DNA, G4) GGGTTAGGGTTAGGGTTAGGG; assay: temperature gradient gel electrophoresis (TGGE); conditions: 2.5 mM KCl; 25 mM mBR buffer, pH 7.0; 260 µM RhG in gel; antiparallel form; parallel form >62 ± 2 °C with RhG

- ΔTm (Tm shift) [1]: > 18.5 °C
- ΔTm (Tm shift) [2]: 0.5 °C
- ΔTm (Tm shift) [3]: 2.0 °C
- ΔTm (Tm shift) [4]: 14.0 °C
- ΔTm (RhG minus no ligand) ([5]; 50 mM KCl, derived from two Tm (92.8, >100)): > 7.2 °C
- ΔTm (RhG minus no ligand) ([5]; 50 mM NaCl, derived from two Tm (54.5, 76.5)): 22.0 °C
- ΔTm (RhG minus no ligand) [6]: -1.1 °C
- ΔTm (RhG minus no ligand) ([7]; 50 mM KCl, derived from two Tm (85.6, 87.9)): 2.3 °C
- ΔTm (RhG minus no ligand) ([7]; 50 mM NaCl, derived from two Tm (47.5, 82.0)): 34.5 °C
- ΔTm (Tm shift) [8]: -2.7 °C
- binding [9]: yes
- binding [10]: yes
- Tm [11]: 52.0 (no ligand 52.0) °C
- Tm [12]: 77.0 (no ligand 62.0) °C
- Tm [13]: 26.8 (no ligand 20.0) °C
- Tm [14]: 54.3 (no ligand ND) °C
- Tm [15]: 48.5 (no ligand 46.2) °C
- binding [16]: yes
- Tm [17]: 50.6 (no ligand 46.5) °C
Structure (SMILES): CCN=c1cc2oc3cc(NCC)c(C)cc3c(-c3ccccc3C(=O)OCC)c-2cc1C
